Consider one molecule from US5741671A, “Isolation cloning and expression of transmembrane water channel aquaporin 1(AQP1)” (The Johns Hopkins University, priority 1995, dated 1998).

A short description of the assay: Stopped-flow osmotic water permeability of control liposomes. Type of assay: biochemical. The note with it: mercurial reagent 1 mM. The protocol: Purified AQP1 was stored overnight at 0° C. or frozen for several days at -80° C. prior to reconstitution. Reconstitution into proteoliposomes was carried out in a final volume of 1 ml containing 60-90 μg of purified AQP1 protein in chromatography buffer, 9 mg of bath-sonicated E. coli phospholipid, 1.25% (w/v) octyl glucoside, and 50 mM Tris-HCl (pH 7.5). The mixture was briefly blended on a vortex mixer and incubated for 20 minutes on ice. […] Protein and phospholipid were measured as described by Ambudkar & Maloney (J. Biol. Chem., 1986, 261:10079-10086).
Permeability measurements. Membrane permeability measurements (Pf) were measured by exposing AQP1 proteoliposomes or control liposomes to an osmotic gradient by rapid mixing with an equal volume of another solution containing buffer A plus sufficient sucrose to increase osmolality in the mixed solutions to a value 120% of that in the original solution. This was performed with a stopped-flow fluorometer (SF.17MV, Applied Photophysics, Leatherhead, U.K.) with a measured dead time of 0.7 ms. […] Extravesicular carboxyfluorescein fluorescence was completely quenched using anti-fluorescein antibody (Harris et al., 1990, Am. J. Physiol. 259:F366-F371). […]

SMILES strings stand for the structures.

For `[Cl][Hg][Cl]` [HgCl2], the “effect on the Pf of control liposomes” value is given as “Neither pCMBS nor HgCl2 had any effect”.
